{"source": "patent US20090264528A1", "about": "“SERINE PALMITOYLCOA TRANSFERASE (SPT) INHIBITION BY MYRIOCIN OR GENETIC DEFICIENCY DECREASES CHOLESTEROL ABSORPTION” (The Research Foundation of State University of New York, priority 2008, published 2009)", "key": {"[1]": {"tested_on": "cholesterol absorption", "experiment": "Blood [14C]-cholesterol within 24 hours after a single gavage", "format": "in vivo, mouse", "experimental": "(§1) FIGS. 5A-I depict several graphs that illustrate that SPT deficient mice absorbed less cholesterol. Mice (n=6, 10-12 weeks old) were fasted for 5 hours and gavaged with 0.1 microCi [^14C]cholesterol and 0.2 microCi [^3H]sitostanol with 0.5 mg unlabeled cholesterol dissolved in 15 microl of olive oil. Feces were collected after 24 hours and lipids were extracted for counting (FIGS. 5A, 5D, and 5G, cholesterol absorption, WT vs WT/myriocin; apoE KO vs apoE KO/myriocin; WT vs Sptlc1^+/−, respectively). Blood was collected during the 24 hour period (Panels B, E, and H, [^14C]cholesterol in blood, WT vs WT/myriocin; apoE KO vs apoE KO/myriocin; WT vs Sptlc1^+/−, respectively). To test specificity, the mice were gavaged with 0.2 microCi [^3H]triolein together with 0.5 mg/ml cold cholesterol. Blood was collected during the 24 hour period (FIGS. 5C, 5F, and 5I, [^3H] glycerolipids in blood, WT versus WT/myriocin; apoE KO versus apoE KO/myriocin; WT versus Sptlc1^+/−, respectively). Value is mean±SD. *P<0.01.\nThis confirmed that there was defective cholesterol absorption in these animals."}, "[2]": {"experiment": "Mouse plasma lipid measurement", "format": "in vivo", "conditions": "for plasma Chol (cholesterol) / plasma PC (phosphatidylcholine) / plasma SM (sphingomyelin) / plasma TG (triglycerol): mean ± SD, N=6", "experimental": "Mice and diet: Male C57BL/6J and apoE KO (Apolipoprotien E knockout) mice with a C57BL/6J background were obtained from the Jackson Laboratory (Bar Harbor, Me.). Sptlc1 heterozygous KO mice with a C57BL/6 background were created and bred in the inventors' laboratory. Myriocin was mixed with a chow diet. Eight- to 12-week-old WT or apoE KO (n=6) mice received myriocin 0.3 mg kg^−1·d^−1 for 12 weeks. The myriocin dose was chosen from a previous dose-dependent experiment with apoE-KO mice. Controls consisted of WT or apoE KO mice fed a chow diet (n=6). Sptlc1 heterozygous KO (Sptlc1^+/−)(n=6) and WT mice were also fed a chow diet. […]\nAs reported previously in (25), which is incorporated by reference herein, Sptlc1^+/− and WT mice had identical plasma lipid levels (Table 1)."}, "[3]": {"tested_on": "cholesterol absorption", "experiment": "Cholesterol absorption, fecal dual-isotope ratio method", "format": "in vivo, mouse", "conditions": "single gavage, feces 24 hours", "experimental": "as §1, with “Value is mean±SD. *P<0.01.” left out\nCholesterol absorption studies: A classical fecal dual-isotope ratio method was used for the cholesterol absorption study. […] The cholesterol absorption ratio was calculated as: % absorption={1−[fecal(^14C/^3H)]/administered(^14C/^3H)}×100. In some cases, mice were sacrificed, plasma collected, and radioactivity counted. […] Each of these, as well as a part of the liver, were digested and radioactivity counted individually. […]"}, "[4]": {"tested_on": "apical membrane SM of small intestine segments", "experiment": "In situ lysenin treatment and cell mortality measurement (WST-1)", "format": "cell-based, mouse", "conditions": "jejunum segments from myriocin-treated WT mice, 5 microg/ml lysenin, 30 minutes", "experimental": "FIGS. 7A-B depict several graphs that illustrate that SPT deficiency decreased SM levels on the apical surface of mouse small intestine. Small intestines were turned inside-out and cut into 0.5 cm of segments from jejunum. The segments were then bathed in 0.5 ml of oxygenated DMEM containing 5% glutamine with 5 microg/ml lysenin or without it as control, at 37 degrees C. for 30 minutes. Then 0.05 ml of WST-1 cell proliferation reagent were added and continuously incubated at 37 degrees C. for 15 minutes. After incubation, solutions were transferred to an Eppendorf tube and quick-spun at maximum speed to pellet cell debris. Supernatants were read OD at 450 nm, a reading for viable cells. Background reading was the WST-1 reagent with no cell treatment. […]\nIn situ lysenin treatment and cell mortality measurement: Overnight-fasted mice were anesthetized and small intestines were isolated from WT animals with or without myriocin treatment, as well as sptlc1 KO and control mice. […] Supernatant was then measured OD at 450 nm, a reading for viable cells (WST-1 reagent with no cell incubation being the background reading). […]\nSecond, lysenin, a SM-specific cytotoxin, was used to measure apical membrane SM levels, since lysenin can recognize SM only when it forms aggregates or microdomains in the plasma membranes. […] Cell viability in tissue segments was measured by adding WST-1 cell proliferation reagent."}}}
{"smiles": "CCCCCCC(=O)CCCCCC/C=C/C[C@@H](O)[C@H](O)[C@@](N)(CO)C(=O)O", "note": "[Myriocin, myriocin]", "values": [{"measurement": "[14C]-cholesterol in the circulation vs controls", "setting": "[1]; myriocin-treated WT mice", "value": "significantly less"}, {"measurement": "[14C]-cholesterol in the circulation vs controls", "setting": "[1]; myriocin-treated apoE KO mice", "value": "significantly less"}, {"measurement": "plasma Chol (cholesterol)", "setting": "[2]; ApoE KO mice", "value": "350 ± 42", "unit": "mg/dL"}, {"measurement": "plasma PC (phosphatidylcholine)", "setting": "[2]; ApoE KO mice", "value": "334 ± 49", "unit": "mg/dL"}, {"measurement": "plasma SM (sphingomyelin)", "setting": "[2]; ApoE KO mice", "value": "39 ± 4", "unit": "mg/dL"}, {"measurement": "plasma TG (triglycerol)", "setting": "[2]; ApoE KO mice", "value": "89 ± 13", "unit": "mg/dL"}, {"measurement": "effect on plasma lipids, including SM, PC, and cholesterol levels", "setting": "[2]; WT mice", "value": "no significant effect"}, {"measurement": "plasma Chol (cholesterol)", "setting": "[2]; WT mice", "value": "95 ± 12", "unit": "mg/dL"}, {"measurement": "plasma PC (phosphatidylcholine)", "setting": "[2]; WT mice", "value": "155 ± 31", "unit": "mg/dL"}, {"measurement": "plasma SM (sphingomyelin)", "setting": "[2]; WT mice", "value": "22 ± 2", "unit": "mg/dL"}, {"measurement": "plasma TG (triglycerol)", "setting": "[2]; WT mice", "value": "71 ± 15", "unit": "mg/dL"}, {"measurement": "decrease of plasma SM compared with controls", "setting": "[2]; apoE KO mice, P<0.001", "value": 48, "unit": "%"}, {"measurement": "decrease of plasma cholesterol compared with controls", "setting": "[2]; apoE KO mice, P<0.01", "value": 37, "unit": "%"}, {"measurement": "reduction in cholesterol absorption compared with controls", "setting": "[3]; myriocin-treated WT mice, P<0.01", "value": 36, "unit": "%"}, {"measurement": "reduction in cholesterol absorption compared with controls", "setting": "[3]; myriocin-treated apoE KO mice, P<0.001", "value": 50, "unit": "%"}, {"measurement": "sensitivity to lysenin-mediated cytolysis vs controls", "setting": "[4]", "value": "significantly less sensitivity"}]}
